Test results: US20250073337A1, “NOVEL SKIN-PERMEABLE PEPTIDE, COMPOSITION INCLUDING THE SAME FOR SKIN AND MUCOUS MEMBRANE, AND USE THEREOF” (CELLICON LAB INC., priority 2022, published 2025)

Assays:
actual human skin = settings: mixture of peptide and caffeine vs caffeine alone, measured over time; FIG. 2
Experimental: A mixture of the skin-permeable peptide of SEQ ID NO: 8 and caffeine or caffeine alone was treated to evaluate skin permeability thereof.
In detail, Franz diffusion cell assay was performed using actual human skin as in Example 1, and the permeation amount of caffeine was measured by HPLC and then compared (FIG. 2).

human skin [1] = settings: mixed with peptide vs treated alone; FIG. 3
Experimental: The FITC conjugation method was performed in accordance with the manufacturer's instructions by purchasing an FITC conjugation kit (Lightning-Link® (ab188285)) from Abcam (Cambridge, MA, USA).

human skin [2] = settings: mixture of peptide and fluorescein liposome (180 nm) vs liposome alone, 3 hours; FIG. 4
Experimental: Aqueous solutions were then obtained through Franz diffusion cell assay, and FITC fluorescence values were analyzed using a fluorescence microplate reader (SpectraMax i3, Molecular Devices, USA).
Fluorescein was liposomized using a liposome kit purchased from Sigma Aldrich (MO, USA) and liposomizing Fluorescein was used as liposome for the skin permeability tests.

HDF cells = assay: Collagen production in HDF cells (Collagen type I ELISA); format: cell-based; settings: mixture of peptide and KTTKS peptide vs KTTKS alone, 48 hours; FIG. 5
Experimental: In order to examine the efficacy improvement of the bioactive material due to the skin permeation effect of the active ingredient by the peptide of SEQ ID NO: 8, HDF cells were treated with a mixture of KTTKS peptide, which is a bioactive material, and the peptide of SEQ ID NO: 8, or treated with KTTKS peptide alone, and collagen production amounts were analyzed using an ELISA assay.
HDF cells used in this experiment were purchased from Thermo Fisher Scientific (Waltham, MA, USA). HDF cells were cultured in Dulbecco's Modified Eagle's Medium (DMEM) supplemented with 10% fetal bovine serum (FBS), 100 U/mL penicillin, and 100 μg/mL streptomycin (Gipco, Life Technologies, Grand Island, NY, USA) and cultured in a 5% CO2 incubator at 37° C.
HDF cells at a density of 2×10^5 cells/mL were dispensed in a volume of 250 μL in 48 wells and allowed to stabilize for 24 hours. Samples were treated at different concentrations and cultured in a CO2 incubator for 48 hours, and then each culture was obtained. […] 100 μL of TMB substrate was dispensed therein, left in the dark for 30 minutes, and treated with 50 μL of a stop solution, and then absorbance was measured at 450 nm with a microspectrophotometer (Molecular Device, Sunnyvale, CA, USA).

real human skin = settings: mixture of peptide and lidocaine, 2 mM sample, 6 hours; compared with known peptide (TAT) and with lidocaine alone; FIG. 1
Experimental: A mixture of skin-permeable peptides consisting of any one amino acid sequence selected from SEQ ID NO: 5 to SEQ ID NO: 8 and derivatives thereof of SEQ ID NO: 1 to SEQ ID NO: 4, or the known peptide and lidocaine, or lidocaine alone was treated to evaluate skin permeability.
In detail, to evaluate the skin permeability, real human skin was used and the skin permeability was measured by a Franz diffusion cell assay, and the permeation amount of lidocaine was measured by HPLC and then compared.
Human skin used in this experiment was purchased from UMC Science Co., Ltd., Korea, and phosphate-buffered saline (PBS, Gibco, USA) was purchased from Sigma-Aldrich. […]
The temperature of the receptor fluid was maintained constant at 32° C.±1° C., and the humidity was maintained at 30-70%, followed by stabilization for 30 minutes. […] 6 hours later, sampling was performed through a sampling arm of the receptor, and for quantification, STD (100 μM standard sample) and the sample were analyzed through HPLC, and the permeability was expressed as a percentage (%) as compared to STD.

Substance: H-RKLFRKILKYLR-OH [SEQ ID NO: 8, H2N-[Arg-Lys-Leu-Phe-Arg-Lys-Ile-Leu-Lys-Tyr-Leu-Arg]-CO2H]
- skin permeation amount of caffeine (actual human skin): significantly superior
- skin permeability effect of 3 kDa FITC-conjugated collagen (human skin [1]): strong skin permeability effects
- skin permeability effect of 30 kDa FITC-conjugated collagen (human skin [1]): strong skin permeability effects
- skin permeability effect of 300 kDa FITC-conjugated collagen (human skin [1]): strong skin permeability effects
- skin permeability effect of 800 kDa hyaluronic acid (HA) (human skin [1]): strong skin permeability effects
- skin permeation effect of the liposome (human skin [2]): remarkably increased
- production amount of collagen (HDF cells): significantly increased
- skin permeation amount of lidocaine (real human skin): highest effect
